The nature of data set [1]: Bench-top (short term) stability in matrix at room temperature. Type of data set: physicochemical, human. Particulars: 8 h, n=5. How it is done: (§1) Stability (ST%) studies were evaluated via sample and solution concentrations, where:
(§2) ST% is the stability of the chemical compound in the sample over the period of time. c 0 is the initial concentration, determined without introducing any extra pauses in the analysis process. c t is the concentration obtained after the storage period with time t.
Bench-top stability was evaluated by keeping plasma samples at low and high quality control levels at ambient temperatures (< 28°C) for at least 8h then processed and analyzed. Selected ambient temperature covered the temperature range for study samples, as ambient temperatures remained < 28°C.

A short description of data set [2]: Freeze-thaw stability (3 cycles at -20°C). It is filed as physicochemical, human. Particulars: 3 freeze-thaw cycles at -20°C, n=5. How it is done: as §1, §2
Spiked plasma samples were subjected to three freeze-thaw cycles at -20°C and the analytes concentrations assessed after the third cycle. This was done also for plasma ultra-filtrate spiked with CEF to assess the stability of free ceftriaxone in calibrators and quality control samples.

A short description of data set [3]: Auto-sampler (processed sample) stability. Type of data set: physicochemical, human. Particulars: 24 h at 18°C, n=5. How it is done: as §1, §2
Processed sample stability was assessed by letting the samples stay in the autosampler at 18°C for 24h and then they were analyzed the following day. This was done to ensure data integrity in case of equipment failure and initiation of a re-run.

Data set [4] is described as follows: Long-term stability at -20°C. It is filed as physicochemical, human. Particulars: 90 days at -20°C, n=5. Here is the method:
as §1, §2
Long term stability of the analytes was studied over a period that covered the duration of storage of the study samples from collection to the last sample analysis, this ensured that the integrity of study samples was not compromised over the period of storage. To investigate long term stability, two sets of sample aliquots were prepared at concentrations corresponding to low and high quality control levels. The first set was processed and analyzed at day 1 and the second set after 90 days of storage at -20°C. The analyte concentrations in the plasma and ultra-filtrate samples at 90 days of storage was compared with those obtained on day 1 to determine the percentage stability.

Data set [5] is described as follows: Sub-stock solution stability at -20°C. Type of data set: physicochemical. The settings on record: solution in 20% methanol, 28 days at -20°C; nominal conc. MET 50, CEF 300, MET-OH 30 µg/mL. How it is done:
Stock solutions of CEF (5 mg of the base/mL), MET and MET-OH (both 1 mg/mL) were prepared by dissolving an appropriate amount of each compound in 20% methanol. The stock solutions were further serially diluted with 20% methanol to make working standard solutions used to spike the blank plasma to produce 0.4, 12, 24, 48, 96,150,220, 300 µg/mL CEF and 1.2, 120, 240 µg/mL QCs; 0.05, 1.0, 2.0, 4.0, 8.0, 16.0, 32.0, 50 µg/mL MET and 0.15, 20, 40 µg/mL QCs; 0.02, 0.8, 1.6, 3.2, 6.4, 13, 20, 30 µg/mL MET-OH and 0.06, 12, 24 µg/mL QCs. Stock solution of CEFU (IS) was prepared by dissolving appropriate amount of the compound in acetonitrile, the stock solution was serially diluted with acetonitrile to make working standard solutions of 1.25 µg/mL and 1 µg/mL. All the stock solutions were stored at -20°C, protected from light (in amber sample vials) and used within three months.
Sub-stock solution stability was evaluated for CEF, MET and MET-OH, by comparing the response generated from the same solution at preparation and after being stored at -20°C for a period of 28 days. […] The stability was reported as coefficient of variation between the initial concentration and the concentration at day 28.

Data set [6] is described as follows: Plasma concentrations in hospitalized children with severe acute malnutrition (LC-MS/MS). Type of data set: in vivo. The settings on record: human, other: intravenous (CEF) and oral (MET), one study participant, oral MET 7.5 mg/Kg given 15 min before; for concentration at 5 min: 5 min after ceftriaxone IV (80 mg/kg); for concentration at 30 min: 30 min after ceftriaxone IV (80 mg/kg). Here is the method: Total drug. To a 50 µL aliquot of plasma (blank, standard, quality control, or patient sample) 200 µL of internal standard (CEFU; of a 1.25 µg/mL solution in acetonitrile) was added. The 1.5 mL polypropylene tubes were vortex-mixed for 3 minutes to precipitate the plasma proteins, followed by centrifugation (4000 x g; 10 min, 4°C). The supernatant (100 µL) was transferred into another clean 1.5 mL polypropylene tube and diluted with 400 µL of 20% methanol in water. The samples were vortex-mixed for 3 minutes and submitted for analysis by LC-MS/MS.
The validated method was successfully applied to a pharmacokinetic study of CEF, MET, MET-OH and unbound ceftriaxone in hospitalized children with complicated severe acute malnutrition (SAM) following an oral administration of MET and intravenous administration of CEF over the course of 72 hours.
81 hospitalized children with SAM and requiring IV antibiotics according to WHO and national guidelines were recruited (after obtaining ethical approval from the Kenya Medical Research Institute Scientific and Ethics Review Unit, approval number: KEMRI/SERU/CGMR-C023-3161 and informed consent from the parents/guardians) and treated with an oral dose of 7.5mg/Kg MET (Flagyl ®oral suspension, 200 mg/5 mL) three times daily and IV injection of 80 mg/kg CEF (Ceftriaxone Rocephin ®, 250 mg) once daily 15 min after metronidazole dose. Blood samples (3.0 mL) were collected into Li-heparinized tubes, a pre-dose sample was taken before administering the drugs. Further sampling at 5, 30, 60 min after ceftriaxone dose and 2, 4, and 8 h after metronidazole dose. The sampling plan was such that each patient had only three blood draws after the base-line sample. The blood was centrifuged (3000 rpm; 5 min), plasma separated and stored at -80°C until analysis time.

Details of data set [7]: method as in Wong et al. [17]. Particulars: ref Wong et al. [17]; cited from earlier work.
On the set-up of data set [8]: method as in Silva et al. [12]. Particulars: over a period of 48h; ref Silva et al. [12]; cited from earlier work.
On the set-up of data set [9]: method as in Ilomuanya et al. [15]. The settings on record: after the fourth freeze/thaw cycle; ref Ilomuanya et al. [15]; cited from earlier work.
On the set-up of data set [10]: method as in Ilomuanya et al. [15]. Particulars: at 72h; ref Ilomuanya et al. [15]; cited from earlier work.
The mark [11] stands for this setting: plasma ultra-filtrate, spiked conc. 1.2 µg/mL.
Setting [12] is: plasma ultra-filtrate, spiked conc. 240 µg/mL.
Where [13] appears, read: plasma, high QC spiked conc. (MET 40, CEF 240, MET-OH 24 µg/mL).
[14] abbreviates: plasma, low QC spiked conc. (MET 0.15, CEF 1.2, MET-OH 0.06 µg/mL).
Where [15] appears, read: processed plasma samples, high QC spiked conc. (MET 40, CEF 240, MET-OH 24 µg/mL).
[16] abbreviates: processed plasma samples, low QC spiked conc. (MET 0.15, CEF 1.2, MET-OH 0.06 µg/mL).

For the compound `CO/N=C(\C(=O)N[C@@H]1C(=O)N2C(C(=O)O)=C(CSc3nc(=O)c(=O)[nH]n3C)CS[C@H]12)c1csc(N)n1` [CEF, Ceftriaxone sodium], the “Benchtop stability in matrix ST %” value in data set [1] (setting [11]) is recorded as 99.8%; in [1] (setting [12]) it was 105.8%; in [1] (setting [13]), 96.0%; in data set [1] (setting [14]) it was 98.1%. Further, the “Freeze-thaw stability ST %” value was 93.0% in [2] (setting [11]), 92.2% in data set [2] (setting [12]), 95.3% in data set [2] (setting [13]) and 95.8% in data set [2] (setting [14]). In addition, the “Auto-sampler stability ST %” value in [3] (setting [15]) was determined as 95.4%; in data set [3] (setting [16]), 90.6%; in data set [3] (processed plasma ultra-filtrate, spiked conc. 1.2 µg/mL), 98.4%; in data set [3] (processed plasma ultra-filtrate, spiked conc. 240 µg/mL), 94.2%. The “Long-term stability ST %” value stood at 94.4% in [4] (setting [11]), 92.4% in data set [4] (setting [12]), 90.6% in data set [4] (setting [13]) and 92.2% in data set [4] (setting [14]). Further, the “Sub-stock solution stability ST %” value in [5] is on record as 96.1%. In data set [6], this compound showed a concentration at 5 min of 266000 ng/mL. The same compound showed a concentration at 30 min in data set [6] of 74400 ng/mL. Besides, in data set [7], the Average protein binding is given as 89.5%.

On to `Cc1ncc([N+](=O)[O-])n1CCO` [MET, metronidazole], for which the “Benchtop stability in matrix ST %” value is recorded as 98.3% in [1] (setting [13]) and 105.8% in data set [1] (setting [14]). The “Freeze-thaw stability ST %” value in data set [2] (setting [13]) is on record as 93.5%; in [2] (setting [14]), 96.1%. The “Auto-sampler stability ST %” value is recorded as 93.7% in data set [3] (setting [15]) and 101.5% in data set [3] (setting [16]). For the same compound, the “Long-term stability ST %” value in data set [4] (setting [13]) was 93.8%; in data set [4] (setting [14]), 95.2%. The “Sub-stock solution stability ST %” value in [5] was found to be 95.8%. Moreover, the concentration at 5 min in [6] worked out at 2540 ng/mL. In data set [6], this compound displayed a concentration at 30 min of 1990 ng/mL. The Mean stability in data set [8] is given as 93.6% - 100.6%. Besides, the “Concentration remaining after freeze/thaw” value in data set [9] is reported as less than 90%. Moreover, the Autosampler stability in [10] is 40.6%–58.7%.

Take `O=[N+]([O-])c1cnc(CO)n1CCO` [MET-OH, 1-(2-hydroxyethyl)-2-hydroxymethyl-5-nitroimidazole]: the “Benchtop stability in matrix ST %” value is reported as 102.2% in [1] (setting [13]) and 99.5% in data set [1] (setting [14]). Besides, the “Freeze-thaw stability ST %” value was 100.7% in [2] (setting [13]) and 97.2% in [2] (setting [14]). Moreover, the “Auto-sampler stability ST %” value is given as 92.8% in [3] (setting [15]) and 103.3% in [3] (setting [16]). In addition, the “Long-term stability ST %” value in [4] (setting [13]) came to 92.0%; in [4] (setting [14]), 99.1%. Further, the “Sub-stock solution stability ST %” value in [5] came out at 95.4%. In [6], this compound registered a concentration at 5 min of 130 ng/mL. In [6], this compound displayed a concentration at 30 min of 660 ng/mL.

Values taken from paper PMC5801568, “Liquid chromatography–tandem mass spectrometry for the simultaneous quantitation of ceftriaxone, metronidazole and hydroxymetronidazole in plasma from seriously ill, severely malnourished children” (Wellcome Open Research, 2018).
